Values quoted from earlier work, collected in patent US11731951B1, “Water reactivity with natural products” (King Faisal University, priority 2023, dated 2023).

Test system: Gram-positive bacteria, including multi-resistant and vancomycin-resistant strains
Conditions: from "Abyssomicins—A 20-Year Retrospective View"

Row | SMILES | antibiotic activity
1 | CC1CC(C)C(=O)C2=C3OC4C(C)CC3(OC2=O)C(/C=C\C1=O)C4O (centres unmarked) [atrop-abyssomicin C] | high antibiotic activity
2 | C[C@@H]1C[C@H](C)C(=O)/C=C/C2[C@@H](O)[C@H]3OC4=C(C(=O)O[C@@]42C[C@H]3C)C1=O [abyssomicin C] | high antibiotic activity
